The values below come from paper PMC6584500, “Small-molecule targeting of MUSASHI RNA-binding activity in acute myeloid leukemia” (Nature Communications, 2019).

Series [1] deals with T1, GST-MSI2 (full-length human MSI2) (Homo sapiens, UniProt Q96DH6).
T1 construct: full-length, N-terminal GST-Flag tag kept (pGEX6P3), expressed in E. coli BL21(DE3)
The series is described as follows: fluorescence polarization, RNA-binding inhibition. It is filed as biochemical. (In fluorescence polarisation assays a small probe gives low polarisation when free and higher when bound to something large.)

Series [2] concerns the target T1, GST-MSI2 (full-length human MSI2). The series is described as follows: microscale thermophoresis. It is filed as binding.
Series [3] shares this target. The series is described as follows: fluorescence polarization, RNA-binding inhibition. In kind it is biochemical. The settings on record: Cy3-C9-rGUAGUAGU RNA oligo, 384-well; no inhibition.
Series [4] addresses T2, GST-MSI2 (full-length human MSI2) (Homo sapiens, UniProt Q96DH6, F66A).
T2 construct: full-length, N-terminal GST-Flag tag kept (pGEX6P3), expressed in E. coli BL21(DE3)
The series is described as follows: microscale thermophoresis. In kind it is binding. In general terms: In MST a laser heats a spot of the sample, and binding alters the fluorescence response.

In series [5] the target is T3, GST-MSI2 (full-length human MSI2) (Homo sapiens, UniProt Q96DH6, F66A/F97A/R100A).
T3 construct: full-length, N-terminal GST-Flag tag kept (pGEX6P3), expressed in E. coli BL21(DE3)
T3 sequence (Q96DH6 whole entry F66A/F97A/R100A): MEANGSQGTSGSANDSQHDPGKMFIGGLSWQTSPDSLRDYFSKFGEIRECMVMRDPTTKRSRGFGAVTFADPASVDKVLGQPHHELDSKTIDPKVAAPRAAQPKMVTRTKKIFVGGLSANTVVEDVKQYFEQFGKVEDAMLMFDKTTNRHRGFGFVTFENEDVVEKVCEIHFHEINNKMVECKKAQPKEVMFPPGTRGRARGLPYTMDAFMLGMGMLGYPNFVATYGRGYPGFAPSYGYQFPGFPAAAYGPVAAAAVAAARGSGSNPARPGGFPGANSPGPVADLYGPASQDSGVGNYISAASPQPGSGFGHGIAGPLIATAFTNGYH
The series is described as follows: microscale thermophoresis. The settings on record: NT647-labelled protein, 50 mM HEPES, 100 mM NaCl, 0.05% Tween-20, pH 7.4, RT; no binding.

In series [6] the target is T4, MSI2 RRM1 (Homo sapiens, UniProt Q96DH6).
T4 construct: RNA-recognition motif 1 only (nucleotides 64-270 of NM_138962.2 as printed); GST-RRM1 made in BL21(DE3); for NMR His6-SUMO fusion with tag cleaved
T4 sequence (Q96DH6 22-104): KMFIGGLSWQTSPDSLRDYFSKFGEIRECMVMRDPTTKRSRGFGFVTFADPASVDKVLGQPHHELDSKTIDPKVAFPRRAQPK
The series is described as follows: NMR chemical shift perturbation. It is filed as binding. The settings on record: 15N-labelled RRM1, tag removed, 20 mM MES, 150 mM NaCl, pH 6.0, 5 °C.

The target of series [7] is T5, GST-MSI2 (full-length human MSI2) (Homo sapiens, UniProt Q96DH6, K22A).
T5 construct: full-length, N-terminal GST-Flag tag kept (pGEX6P3), expressed in E. coli BL21(DE3)
T5 sequence (Q96DH6 whole entry K22A): as the sequence (Q96DH6 whole entry F66A/F97A/R100A) above, with K22A, A66F, A97F, A100R counted along it
The series is described as follows: microscale thermophoresis. It is filed as binding.

The target in series [8] is T6, GST-SYNCRIP (Homo sapiens, UniProt O60506).
T6 construct: N-terminal GST-Flag tag kept (pGEX6P3), expressed in E. coli BL21(DE3)
T6 sequence (O60506 1-623): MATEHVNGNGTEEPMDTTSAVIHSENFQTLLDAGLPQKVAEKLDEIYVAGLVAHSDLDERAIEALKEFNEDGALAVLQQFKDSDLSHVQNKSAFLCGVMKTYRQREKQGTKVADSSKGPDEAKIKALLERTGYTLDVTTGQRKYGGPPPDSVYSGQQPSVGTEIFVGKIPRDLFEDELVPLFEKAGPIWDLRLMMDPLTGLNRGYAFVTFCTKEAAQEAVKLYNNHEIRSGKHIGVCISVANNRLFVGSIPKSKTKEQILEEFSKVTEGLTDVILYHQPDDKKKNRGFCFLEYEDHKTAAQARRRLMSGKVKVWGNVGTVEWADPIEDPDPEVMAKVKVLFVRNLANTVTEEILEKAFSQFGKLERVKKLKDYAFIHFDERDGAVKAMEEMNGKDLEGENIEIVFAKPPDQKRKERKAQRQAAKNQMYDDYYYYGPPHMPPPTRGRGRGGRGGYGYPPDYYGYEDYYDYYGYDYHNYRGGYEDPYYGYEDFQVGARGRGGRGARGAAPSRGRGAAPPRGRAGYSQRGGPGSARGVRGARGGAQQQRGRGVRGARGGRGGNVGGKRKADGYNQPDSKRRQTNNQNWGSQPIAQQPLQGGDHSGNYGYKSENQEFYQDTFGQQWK
The series is described as follows: microscale thermophoresis. In kind it is binding.

Series [9] has as its target T1, GST-MSI2 (full-length human MSI2). The series is described as follows: fluorescence polarization, RNA-binding inhibition.
The target in series [10] is T7, GST-MSI2 (full-length human MSI2) (Homo sapiens, UniProt Q96DH6, F97A).
T7 construct: full-length, N-terminal GST-Flag tag kept (pGEX6P3), expressed in E. coli BL21(DE3)
T7 sequence (Q96DH6 whole entry F97A): as the sequence (Q96DH6 whole entry F66A/F97A/R100A) above, with A66F, A100R counted along it
The series is described as follows: microscale thermophoresis. In kind it is binding.

For series [11], the target named is T8, GST-SRSF2 (Homo sapiens, UniProt Q01130).
T8 construct: commercial GST-tagged recombinant protein
T8 sequence (Q01130 2-221): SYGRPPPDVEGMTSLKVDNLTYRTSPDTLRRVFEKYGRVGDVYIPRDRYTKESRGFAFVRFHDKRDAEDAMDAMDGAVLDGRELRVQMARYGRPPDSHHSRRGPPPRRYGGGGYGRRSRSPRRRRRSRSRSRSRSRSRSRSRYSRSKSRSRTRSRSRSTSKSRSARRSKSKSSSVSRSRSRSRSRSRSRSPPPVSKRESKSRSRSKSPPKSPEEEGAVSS
The series is described as follows: microscale thermophoresis. In kind it is binding.

Series [12] addresses T9, GST-MSI2 (full-length human MSI2) (Homo sapiens, UniProt Q96DH6, R100A).
T9 construct: full-length, N-terminal GST-Flag tag kept (pGEX6P3), expressed in E. coli BL21(DE3)
The series is described as follows: microscale thermophoresis. It is filed as binding.

In series [13] the target is T10, bovine serum ALBUMIN (Bos taurus, UniProt P02769).
T10 construct: gene ALB
T10 sequence (P02769 25-607): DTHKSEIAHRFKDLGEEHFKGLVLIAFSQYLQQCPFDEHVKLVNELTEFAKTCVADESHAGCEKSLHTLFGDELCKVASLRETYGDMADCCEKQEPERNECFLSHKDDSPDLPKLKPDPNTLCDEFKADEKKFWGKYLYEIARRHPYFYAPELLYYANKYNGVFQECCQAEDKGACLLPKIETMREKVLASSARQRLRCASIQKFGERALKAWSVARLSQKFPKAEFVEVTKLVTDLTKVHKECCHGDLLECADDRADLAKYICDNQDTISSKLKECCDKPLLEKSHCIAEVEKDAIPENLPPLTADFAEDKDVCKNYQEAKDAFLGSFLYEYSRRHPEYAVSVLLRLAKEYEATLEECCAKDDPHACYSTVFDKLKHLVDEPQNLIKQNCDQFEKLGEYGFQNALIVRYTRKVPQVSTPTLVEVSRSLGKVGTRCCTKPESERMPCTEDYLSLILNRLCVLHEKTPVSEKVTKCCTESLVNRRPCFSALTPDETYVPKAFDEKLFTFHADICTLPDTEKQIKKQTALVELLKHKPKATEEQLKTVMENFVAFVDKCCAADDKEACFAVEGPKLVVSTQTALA
The series is described as follows: microscale thermophoresis. It is filed as binding.

Series [14] addresses T4, MSI2 RRM1. The series is described as follows: microscale thermophoresis. In kind it is binding. The settings on record: NT647-labelled protein, pH 7.4, RT.
Series [15] deals with MSI2 K22A (Homo sapiens, UniProt Q96DH6 1-328, K22A). The series is described as follows: MST; MST: 50 mM HEPES, 100 mM NaCl, 0.05% Tween-20, pH 7.4, RT; EMSA: 10 mM HEPES, 20 mM KCl (+10 mM KCl), 1 mM MgCl2, 1 mM DTT, 5% glycerol, 100 ug/mL tRNA, 40 nM RNA, RT. The settings on record: protein: recombinant; tags: GST, Flag; single strand. (In general: Mobility shift assays separate free from complexed probe on a gel.)
MSI2 K22A, sequence (Q96DH6 whole entry K22A): as the sequence (Q96DH6 whole entry F66A/F97A/R100A) above, with K22A, A66F, A97F, A100R counted along it

For series [16], the target named is MSI2 F66A (Homo sapiens, UniProt Q96DH6 1-328, F66A). The description is as above. The settings on record: protein: recombinant; tags: GST, Flag; single strand.
MSI2 F66A, sequence (Q96DH6 whole entry F66A): as the sequence (Q96DH6 whole entry F66A/F97A/R100A) above, with A97F, A100R counted along it
The target of series [17] is MSI2 R100A (Homo sapiens, UniProt Q96DH6 1-328, R100A). The series is described as above. The settings on record: protein: recombinant; tags: GST, Flag; single strand.
MSI2 R100A, sequence (Q96DH6 whole entry R100A): as the sequence (Q96DH6 whole entry F66A/F97A/R100A) above, with A66F, A97F counted along it
Series [18] has as its target MSI2 WT (Homo sapiens, UniProt Q96DH6 1-328). The series is described as above. The settings on record: protein: recombinant; tags: GST, Flag; single strand.
Series [19] addresses MSI2 F97A (Homo sapiens, UniProt Q96DH6 1-328, F97A). The series is described as above. The settings on record: protein: recombinant; tags: GST, Flag; single strand.

Like-named read-outs stand apart in the source and are kept apart here.

T1 sequence (Q96DH6 whole entry): as the sequence (Q96DH6 whole entry F66A/F97A/R100A) above, with A66F, A97F, A100R counted along it
T9 sequence (Q96DH6 whole entry R100A): as the sequence (Q96DH6 whole entry F66A/F97A/R100A) above, with A66F, A97F counted along it
T2 sequence (Q96DH6 whole entry F66A): as the sequence (Q96DH6 whole entry F66A/F97A/R100A) above, with A97F, A100R counted along it
MSI2 F97A, sequence (Q96DH6 whole entry F97A): as the sequence (Q96DH6 whole entry F66A/F97A/R100A) above, with A66F, A100R counted along it
MSI2 WT, sequence (Q96DH6 whole entry): as the sequence (Q96DH6 whole entry F66A/F97A/R100A) above, with A66F, A97F, A100R counted along it

For orientation: IC50 means the midpoint of a concentration-inhibition curve. High values mean weaker potency, low ones greater potency. What is called Kd is the constant that tells how readily two partners part at equilibrium. In series [1], `Cc1cc2nc3c(=O)[nH]c(=O)nc-3n(C)c2cc1CO` [Ro-OH] came in with a concentration for half-maximal inhibition (IC50) of 25 ± 8 µM. In series [2], this molecule yielded a Kd of 302 ± 119 µM.
In series [2] (NT647-labelled protein, 50 mM HEPES, 100 mM NaCl, 0.05% Tween-20, pH 7.4, RT, no interaction detected up to 500 μM), `CC(=O)Nc1ccc2nc3c(=O)n(C)c(=O)n(C)c3nc2c1` [Ro-NGF] came in with a Kd of over 500 µM. Besides, the “fluorescence polarization, RNA-binding inhibition” value in series [3] is recorded as “Ro-NGF failing to inhibit RNA-binding activity”.
`Cc1cc2nc3c(=O)[nH]c(=O)nc-3n(C)c2cc1C=O` [Ro, Ro 08–2750]: the Kd in series [4] is over 200 µM; in series [7] it was over 200 µM; in [8], 236 ± 167 µM; in series [10] it was 69.5 ± 14.7 µM; in series [11], 190 ± 62 µM; in series [12] it was 148 ± 65 µM. Also, the dissociation constant Kd in series [13] is over 500 µM; in [14], 24.3 ± 4 µM; in series [2], 12.3 ± 0.5 µM. In series [5], the microscale thermophoresis entry was “The triple mutant (F66A/F97A/R100A) was incapable of binding to Ro”. Besides, the “NMR chemical shift perturbation” value in [6] is “observed three main regions with structural changes by titrating MSI2 with Ro”. Also, in series [9], the IC50 came to 2.7 ± 0.4 µM.
As for GUAGUAGUAGUAGUA (ssRNA) [15-nt MSI RNA oligo], the Kd came to 0.0064 ± 0.0006 µM in series [15]; 0.0062 ± 0.0006 µM in [16]; 0.0065 ± 0.0009 µM in series [17]; 0.0088 ± 0.0009 µM in series [18]; 0.0066 ± 0.001 µM in [19].
